Results on seven molecules are retold here after patent US20240277795A1, “INHIBITORS OF CYSTEINE PROTEASES AND METHODS OF USE THEREOF” (Pardes Biosciences, Inc., priority 2021, published 2024).

In one assay the target is 229E Mpro (Human coronavirus 229E, UniProt P0C6X1). The assay is described as follows: 229E Mpro enzymatic assay. In kind it is biochemical, HCoV 229E. The conditions noted are these: Table 3.
The next assay deals with SARS-COV2 Mpro (Severe acute respiratory syndrome coronavirus 2, UniProt P0DTD1). Nature of the assay: COVID-19 (nCoV-2019, SARS-CoV2) Mpro enzymatic assay. It counts as biochemical.
A further assay addresses OC43 Mpro (Human coronavirus OC43, UniProt P0C6X6). The assay is described as follows: OC43 Mpro enzymatic assay. It counts as biochemical, HCoV OC43. As to conditions: Table 3.
A further assay relates to HCoV 229E. The assay is described as follows: HCoV 229E cytopathic effect (CPE) assay. It counts as cell-based. As to conditions: Table 4; CellTiter Glo; read-out: 229E CPE EC50. As for the experimental part:
(§1) Compounds were assayed using standard methods against multiple coronaviral strains, including HCoV 229E and OC43 strains. The antiviral activity of compounds was calculated based on the protection of the virus-induced CPE at each concentration normalized by the virus control.
(§2) Reagents and instruments used in this assay include luminescent cell viability assay kit CellTiter Glo (Promega) and Microplate Reader Synergy2 (BioTek).
Cytopathic effect (CPE) was measured by CellTiter Glo following the manufacturer's manual. The antiviral activity of compounds was calculated based on the protection of the virus-induced CPE at each concentration normalized by the virus control.
(§3) The cytotoxicity of compounds was assessed under the same conditions, but without virus infection, in parallel. Cell viability was measured with CellTiter Glo. The antiviral activity and cytotoxicity of compounds were expressed as % Inhibition and % Viability, respectively, and calculated with formulas.
(Cytopathic effects are the visible damage that an infection or toxin causes in cultured cells.)

The subject of a further assay is HCov OC43. Nature of the assay: HCoV OC43 cytopathic effect (CPE) assay. In kind it is cell-based. The conditions noted are these: Betacoronavirus 1, OC43; Table 4; CellTiter Glo. As for the experimental part: as §1, §2
Reference compound used was remdesivir; detection reagent: CellTiter Glo.) The CPE were measured by CellTiter Glo following the manufacturer's manual. The antiviral activity of compounds was calculated based on the protection of the virus-induced CPE at each concentration normalized by the virus control.
as §3

Sequence of 229E Mpro (P0C6X1 2966-3267): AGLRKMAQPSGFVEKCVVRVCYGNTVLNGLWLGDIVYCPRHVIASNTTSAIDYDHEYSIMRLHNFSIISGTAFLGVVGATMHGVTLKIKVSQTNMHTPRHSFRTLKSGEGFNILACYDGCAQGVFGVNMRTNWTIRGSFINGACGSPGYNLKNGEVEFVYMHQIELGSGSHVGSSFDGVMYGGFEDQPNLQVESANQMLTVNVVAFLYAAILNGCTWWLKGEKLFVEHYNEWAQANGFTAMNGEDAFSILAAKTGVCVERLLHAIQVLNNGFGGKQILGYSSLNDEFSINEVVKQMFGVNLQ
Sequence of OC43 Mpro (P0C6X6 3247-3549): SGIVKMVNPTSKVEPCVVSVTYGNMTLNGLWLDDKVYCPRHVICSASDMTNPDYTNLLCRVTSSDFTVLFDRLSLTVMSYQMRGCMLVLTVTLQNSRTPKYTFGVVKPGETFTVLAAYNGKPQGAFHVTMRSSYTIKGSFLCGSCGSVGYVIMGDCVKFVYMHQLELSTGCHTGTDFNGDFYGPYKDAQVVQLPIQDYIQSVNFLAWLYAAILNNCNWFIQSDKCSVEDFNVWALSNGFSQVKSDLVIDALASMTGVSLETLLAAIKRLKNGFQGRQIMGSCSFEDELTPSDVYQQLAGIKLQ

One may read the IC50 as the concentration at which inhibition is half-maximal. What is called EC50 is the concentration that produces a half-maximal response. `N#C[C@H](C[C@@H]1CCCNC1=O)NC(=O)[C@H](CC1CC1)NC(=O)[C@H](Cc1cccc2ccccc12)NC(=O)c1cnccn1` [Compound 115, N—((S)-1-(((S)-1-(((S)-1-cyano-2-((S)-2-oxopiperidin-3-yl)ethyl)amino)-3-cyclopropyl-1-oxopropan-2-yl)amino)-3-(naphthalen-1-yl)-1-oxopropan-2-yl)pyrazine-2-carboxamide]: the results for the IC50 against 229E Mpro, at SARS-COV2 Mpro and against OC43 Mpro were under 2000 nM, 2000 to 10000 nM and under 2000 nM, respectively. For the same molecule, the EC50 with HCoV 229E and in the assay with HCov OC43 was 2000 to 10000 nM in each case.

With `N#C[C@H](C[C@@H]1CCCNC1=O)NC(=O)[C@H](CC1CC1)NC(=O)[C@H](Cc1cccc2ccccc12)NC(=O)OCc1ccccc1` [Compound 116, Benzyl((S)-1-(((S)-1-(((S)-1-cyano-2-((S)-2-oxopiperidin-3-yl)ethyl)amino)-3-cyclopropyl-1-oxopropan-2-yl)amino)-3-(naphthalen-1-yl)-1-oxopropan-2-yl)carbamate], the IC50 against 229E Mpro, against SARS-COV2 Mpro and against OC43 Mpro was under 2000 nM throughout. For the same molecule, the EC50 in the assay with HCoV 229E is 2000 to 10000 nM; in the assay on HCov OC43 it was under 2000 nM.

For `CC1(C)C[C@@H](C[C@@H](C#N)NC(=O)[C@H](CC2CC2)NC(=O)[C@H](Cc2cccc3ccccc23)NC(=O)c2cnccn2)C(=O)N1` [Compound 118, N—((S)-1-(((S)-1-(((S)-1-cyano-2-((R)-5,5-dimethyl-2-oxopyrrolidin-3-yl)ethyl)amino)-3-cyclopropyl-1-oxopropan-2-yl)amino)-3-(naphthalen-1-yl)-1-oxopropan-2-yl)pyrazine-2-carboxamide], the figures for the IC50 against 229E Mpro, against SARS-COV2 Mpro and at OC43 Mpro were under 2000 nM, 2000 to 10000 nM and under 2000 nM, respectively. Also, the EC50 with HCoV 229E and with HCov OC43 was 2000 to 10000 nM in each case.

For the molecule `N#C[C@H](C[C@@H]1CCNC1=O)NC(=O)[C@H](CC1CC1)NC(=O)[C@H](Cc1cccc2ccccc12)NC(=O)c1cnccn1` [Compound 119, N—((S)-1-(((S)-1-(((S)-1-cyano-2-((S)-2-oxopyrrolidin-3-yl)ethyl)amino)-3-cyclopropyl-1-oxopropan-2-yl)amino)-3-(naphthalen-1-yl)-1-oxopropan-2-yl)pyrazine-2-carboxamide], the IC50 was under 2000 nM at 229E Mpro, 2000 to 10000 nM against SARS-COV2 Mpro and under 2000 nM against OC43 Mpro. Besides, the EC50 with HCoV 229E was 10000 to 30000 nM; with HCov OC43 it was 2000 to 10000 nM.

For the molecule `Cc1cc(C(=O)N[C@@H](Cc2cccc3ccccc23)C(=O)N[C@@H](CC2CC2)C(=O)N[C@H](C#N)C[C@@H]2CC(C)(C)NC2=O)no1` [Compound 120, N—((S)-1-(((S)-1-(((S)-1-cyano-2-((R)-5,5-dimethyl-2-oxopyrrolidin-3-yl)ethyl)amino)-3-cyclopropyl-1-oxopropan-2-yl)amino)-3-(naphthalen-1-yl)-1-oxopropan-2-yl)-5-methylisoxazole-3-carboxamide], the half-inhibitory concentration (IC50) is under 2000 nM at 229E Mpro, 2000 to 10000 nM against SARS-COV2 Mpro and under 2000 nM on OC43 Mpro. Also, the figures for the EC50 in the assay with HCoV 229E and in the assay with HCov OC43 were 2000 to 10000 nM and under 2000 nM, respectively.

`Cc1cc(C(=O)N[C@@H](Cc2cccc3ccccc23)C(=O)N[C@@H](CC2CC2)C(=O)N[C@H](C#N)C[C@@H]2CCNC2=O)no1` [Compound 121, N—((S)-1-(((S)-1-(((S)-1-cyano-2-((S)-2-oxopyrrolidin-3-yl)ethyl)amino)-3-cyclopropyl-1-oxopropan-2-yl)amino)-3-(naphthalen-1-yl)-1-oxopropan-2-yl)-5-methylisoxazole-3-carboxamide]: the half-inhibitory concentration (IC50) at 229E Mpro was under 2000 nM; against SARS-COV2 Mpro, 2000 to 10000 nM; against OC43 Mpro, under 2000 nM. Also, the EC50 in the assay with HCoV 229E and in the assay with HCov OC43 was 2000 to 10000 nM throughout.

Take `N#C[C@H](C[C@@H]1CCCNC1=O)NC(=O)[C@H](CC1CC1)NC(=O)[C@H](Cc1ccc(F)cc1)NC(=O)OCc1ccccc1` [Compound 123]: the IC50 is under 2000 nM against 229E Mpro, 10000 to 30000 nM against SARS-COV2 Mpro and 2000 to 10000 nM at OC43 Mpro. Moreover, the EC50 in the assay on HCoV 229E and in the assay on HCov OC43 was 10000 to 30000 nM in each case.
